Data: PubChem BioAssay AID2060495 (Molecular Pharmacology Branch, DTP, NCI, 2025)

Tested on: 521955-158-R2-J5-PDC complex spheroid viability
Test: Anticancer human tumor 521955-158-R2-J5-PDC patient-derived pancreatic carcinoma cell line growth inhibition [GQUAD]
Conditions: for IC50: curve of first compound; for viability, T/C: stronger effect = lower value
Source text: DNA G-quadruplex Stabilizer Agents in Combinations in Complex Spheroids
A high-throughput screen of multi-cell type tumor spheroids was designed to identify active combinations of DNA G-quadruplex stabilizer agents and targeted small molecules. Complex spheroids include a stromal component modeled by human endothelial cells (HUVEC) and fibroblasts modeled by human mesenchymal stem cells (MSCs). The concentration ranges selected for each drug and investigational agent were based upon clinically achievable concentrations if the clinical Cmax of the agent was known.
Compounds. The drugs and investigational agents: pidnarulex (CX-5461; NSC782164), APTO-253 (NSC789042), BRACO-19 (NSC847499), peposertib (NSC802822), ceralasertib (NSC780249), elimusertib (NSC800525), camonsertib (NSC841442), AZD-1390 (NSC803789), olaparib (NSC753686), talazoparib (NSC767125), ART-558 (NSC835418), sotorasib (NSC818433), MRTX-1133 (NSC836407), SN-38 (NSC673596), topotecan (NSC609699), etoposide (NSC141540), doxorubicin (NSC123127), gemcitabine (NSC613327), 5-fluorouracil (NSC19893), paclitaxel (NSC125973), vemurafenib (NSC761431), panobinostat (NSC761190), R-306465 (JNJ-16241199; NSC773264), adavosertib (NSC754352), TP-3654 (NSC805149), carboplatin (NSC241240), KSQ-4279 (NSC840948), and staurosporine (NSC755774) were obtained from the National Cancer Institute (NCI) Developmental Therapeutics Program Chemical Repository (34). The FDA-approved anticancer drug set is available from the NCI Developmental Therapeutics Program. […] The stock solutions were prepared in dimethyl sulfoxide (DMSO, Sigma-Aldrich, St. Louis, MO, cat. D2650) at 800-fold the tested concentration and stored at -70 degrees C prior to their use. All drugs and investigational agents were tested over a range starting from a high concentration at or near the clinical Cmax and decreasing in half-log increments. If the clinical Cmax for an agent had not been determined, the highest concentration tested was 10 microM.
2.3 Cell Culture. All cells were maintained in an incubator at 37 degrees C and 5% CO2 with 95% humidity. The PDC lines were cultured according to standard operating procedures established by the NCI PDMR. All PDCs were thawed and cultured in Matrigel-coated flasks prepared with a working solution of 1X Ham's F-12 nutrient mix, without supplementation (Invitrogen, cat. 11765054), 100 U/mL penicillin-streptomycin (Invitrogen, cat. 15140122), and 2.5% Matrigel (Corning Inc., cat. 354248) for the first three passages. The 857933-349-R-J2-PDC line was cultured in 6C/Colon 1B media, which includes advanced DMEM/F-12 (Thermo Fisher Scientific, cat. 12634028), 10 mM HEPES (Thermo Fisher Scientific, cat. 15630080), 1X GlutaMAX supplement (Thermo Fisher Scientific, cat. 35050061), 0.1 mg/mL primocin (InvivoGen, cat. ant-pm-2), 10% defined fetal bovine serum, heat inactivated (HyClone Laboratories Inc., cat. SH30070.03HI), 50% L-WRN conditioned media (ATCC, cat. CRL-3276), 1.25 mM N-Acetyl-L-cysteine (Sigma-Aldrich, cat. A9165), 10 mM nicotinamide (Sigma-Aldrich, cat. N0636), 1X B-27 supplement (Thermo Fisher Scientific, cat. 17504044), 1X N-2 supplement (Thermo Fisher Scientific, cat. 17502048), 10 microM Y-27632 dihydrochloride (Tocris Bioscience, cat. 1254), and 50 ng/mL human EGF recombinant protein (Thermo Fisher Scientific, cat. PHG0311). The 485176-168-R4-J1-PDC line was cultured in Panc media, which includes all 6C/Colon 1B media components plus 100 ng/mL human FGF-10 (Thermo Fisher Scientific, cat. 100-26), 500 nM SB-431542 (Selleckchem, cat. S1067), and gastrin (Tocris, cat. 3006).
[…]
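Further: spheroids exposed to agents for one week before reading.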
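Wherever viability, T/C is given: 100% = DMSO vehicle control viability.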

IC50 (second compound 0.0316 µM): 113 nM | IC50 (second compound 0.1 µM): 127 nM | IC50 (second compound 0.316 µM): < 31.6 nM | IC50 (second compound 1 µM): < 31.6 nM | IC50 (second compound 3.16 µM): < 31.6 nM | IC50 (second compound 10 µM): < 31.6 nM
Structure (SMILES): COc1cccc2c1C(=O)c1c(O)c3c(c(O)c1C2=O)CC(O)(C(=O)CO)CC3OC1CC(N)C(O)C(C)O1 (configuration not stated) + Cc1cnc(CNC(=O)c2c(=O)c3ccc(N4CCCN(C)CC4)nc3n3c2sc2ccccc23)cn1
viability, T/C (second compound 0.0316 µM, first compound 0.0316 µM): 78.2% | viability, T/C (second compound 0.0316 µM, first compound 0.1 µM): 48% | viability, T/C (second compound 0.0316 µM, first compound 0.316 µM): 38.4% | viability, T/C (second compound 0.0316 µM, first compound 1 µM): 10.9% | viability, T/C (second compound 0.0316 µM, first compound 3.16 µM): 4.19% | viability, T/C (second compound 0.0316 µM, first compound 10 µM): 0.5% | viability, T/C (second compound 0.1 µM, first compound 0.0316 µM): 53.3% | viability, T/C (second compound 0.1 µM, first compound 0.1 µM): 59.6% | viability, T/C (second compound 0.1 µM, first compound 0.316 µM): 26.3% | viability, T/C (second compound 0.1 µM, first compound 1 µM): 10.6% | viability, T/C (second compound 0.1 µM, first compound 3.16 µM): 1.38% | viability, T/C (second compound 0.1 µM, first compound 10 µM): 0.74% | viability, T/C (second compound 0.316 µM, first compound 0.0316 µM): 36.3% | viability, T/C (second compound 0.316 µM, first compound 0.1 µM): 37.1% | viability, T/C (second compound 0.316 µM, first compound 0.316 µM): 20.9% | viability, T/C (second compound 0.316 µM, first compound 1 µM): 8.92% | viability, T/C (second compound 0.316 µM, first compound 3.16 µM): 0.18% | viability, T/C (second compound 0.316 µM, first compound 10 µM): 0.39% | viability, T/C (second compound 1 µM, first compound 0.0316 µM): 20.7% | viability, T/C (second compound 1 µM, first compound 0.1 µM): 20.1% | viability, T/C (second compound 1 µM, first compound 0.316 µM): 14.5% | viability, T/C (second compound 1 µM, first compound 1 µM): 8.17% | viability, T/C (second compound 1 µM, first compound 3.16 µM): 0.08% | viability, T/C (second compound 1 µM, first compound 10 µM): 0.07% | viability, T/C (second compound 3.16 µM, first compound 0.0316 µM): 18.5% | viability, T/C (second compound 3.16 µM, first compound 0.1 µM): 18.4% | viability, T/C (second compound 3.16 µM, first compound 0.316 µM): 15% | viability, T/C (second compound 3.16 µM, first compound 1 µM): 5.89% | viability, T/C (second compound 3.16 µM, first compound 3.16 µM): 0.12% | viability, T/C (second compound 3.16 µM, first compound 10 µM): 0.13% | viability, T/C (second compound 10 µM, first compound 0.0316 µM): 18.4% | viability, T/C (second compound 10 µM, first compound 0.1 µM): 14.4% | viability, T/C (second compound 10 µM, first compound 0.316 µM): 16.2% | viability, T/C (second compound 10 µM, first compound 1 µM): 4.97% | viability, T/C (second compound 10 µM, first compound 3.16 µM): 0.21% | viability, T/C (second compound 10 µM, first compound 10 µM): 0.19%
